Data reported in patent US20260216131A1, “METHODS OF TREATING BREAST HYPERPLASIA USING TEZACAFTOR” (Jiangsu Bioscene Pharmaceutical Co., Ltd., priority 2023, published 2026).
Several values for one entry are separate records, joined by “and”; a condition that tells them apart may be missing. Equal values may be shown once. Entries after “also recorded” stand apart in the source; their conditions may differ.

How the values were obtained:
Format in all cases: in vivo
[1] = tested on: rat model of breast hyperplasia; experiment: Nipple diameter and height in rat model of breast hyperplasia; settings: for Nipple Height / Nipple Diameter: female SD rats, gavage, tezacaftor 40 mg/kg/day, tamoxifen 4 mg/kg/day; for Nipple Diameter: in mm (unit assumed); for Change in nipple diameter compared with the model group / Change in nipple height compared with the model group: after 30 days of administration, result in words
Text: (§1) Study Design: Thirty-two female SD rats, aged 7-8 weeks and weighing 200-250 g, were used. The rats were randomly divided into four groups: a normal control group, a model group, a tezacaftor treatment group (hereinafter referred to as the “treatment group”), and a tamoxifen treatment group (hereinafter referred to as the “positive control group”).
(§2) Before administration of the test drugs, breast hyperplasia was induced in the rats of the model group, the treatment group, and the positive control group. Specifically, estradiol benzoate injection was intramuscularly administered to the inner thigh of each rat at a dose of 0.5 mg/kg/day for 25 consecutive days. Starting on day 26, progesterone injection was intramuscularly administered to the inner thigh at a dose of 5 mg/kg/day for 5 consecutive days. The total modeling period was 30 days.
(§3) Normal control group: Normal saline in an equal volume was intramuscularly administered to the inner side of the hind limb of each rat once daily for 30 consecutive days, with the left and right hind limbs injected alternately. Beginning on day 31, normal saline was administered by gavage for 30 days.
(§4) Model group: Beginning on day 31, the vehicle was administered by gavage for 30 consecutive days. Samples were collected 0.5 hour after the last administration.
(§5) Treatment group: Beginning on day 31, tezacaftor was administered by gavage at a dose of 40 mg/kg/day for 30 consecutive days. Samples were collected 0.5 hour after the last administration.
(§6) Positive control group: Beginning on day 31, tamoxifen was administered by gavage at a dose of 4 mg/kg/day for 30 consecutive days. Samples were collected 0.5 hour after the last administration.
Evaluation indices: (1) nipple diameter and height; (2) ovarian index and uterine index; (3) changes in serum E2 and PROG levels; and (4) the number of mammary lobular acini, the acinar lumen diameter, and the duct diameter in rats. […]

[2] = tested on: rat model of breast hyperplasia; experiment: Ovarian index and uterine index in rat model of breast hyperplasia; settings: after 30 days of administration; for Ovarian index (ovary weight/body weight) / Uterine index (uterine weight/body weight): gavage, tezacaftor 40 mg/kg/day, tamoxifen 4 mg/kg/day; for Change in ovarian index compared with the model group / Change in uterine index compared with the model group: result in words
Text: as §1, §2, §3, §4, §5, §6
(§7) Evaluation indices: (1) nipple diameter and height; (2) ovarian index and uterine index; (3) changes in serum E2 and PROG levels; and (4) the number of mammary lobular acini, the acinar lumen diameter, and the duct diameter in rats.
In the study of Embodiment 1, after 30 days of administration, the uterus weight, ovary weight, and body weight of the rats were measured. The uterine index was calculated as uterine weight/body weight, and the ovarian index was calculated as ovary weight/body weight. A comparison of the ovarian index and uterine index among the different groups is shown in FIG. 2, and the corresponding data are presented in Table 3.

[3] = tested on: rat model of breast hyperplasia; experiment: Serum E2 and PROG levels in rat model of breast hyperplasia; settings: after 30 days of administration; assay kit; result in words
Text: as §1, §2, §3, §4, §5, §6, §7
In the study of Embodiment 1, after 30 days of administration, serum E2 and PROG levels in rats of each group were measured using assay kits.

[4] = tested on: rat model of breast hyperplasia; experiment: Histopathological evaluation (H&E) of mammary glands in rat model of breast hyperplasia; design: key to Histopathological Examination Score of mammary gland: Absence of a lesion was scored as 0; 1: very slight; 2: mild; 3: moderate; 4: severe; settings: after 30 days of administration; for Breast hyperplasia compared with the model group: H&E pathology, result in words; for Histopathological Examination Score of mammary gland: individual animals No. 1-8, H&E staining
Text: as §1, §2, §3, §4, §5, §6, §7
In the study of Embodiment 1, after 30 days of administration, mammary gland tissues from rats in each group were collected, dehydrated, embedded, and sectioned. The sections were subjected to H&E staining and pathological analysis.

[5] = Day 0 of treatment (baseline after modeling)

Row | SMILES | Nipple Height [1, 5] | Nipple Diameter [1, 5] | Nipple Height ([1]; Day 15 of treatment) | Nipple Diameter ([1]; Day 15 of treatment) | Nipple Height ([1]; Day 30 of treatment) | Nipple Diameter ([1]; Day 30 of treatment) | Change in nipple diameter compared with the model group [1] | Change in nipple height compared with the model group [1] | Ovarian index (ovary weight/body weight) [2] | Uterine index (uterine weight/body weight) [2] | Change in ovarian index compared with the model group [2] | Change in uterine index compared with the model group [2] | Serum E2 level compared with the model group [3] | Serum PROG level compared with the model group [3] | Breast hyperplasia compared with the model group [4] | Histopathological Examination Score of mammary gland [4]
1 | CC/C(=C(\c1ccccc1)c1ccc(OCCN(C)C)cc1)c1ccccc1 [tamoxifen] | 1.94 ± 0.16 mm | 1.63 ± 0.12 | 1.70 ± 0.17 mm | 1.28 ± 0.14 | 1.56 ± 0.12 mm | 1.11 ± 0.10 | decreases | decreases | 0.145 ± 0.052% | 0.050 ± 0.015 % | decreases | decreases | significantly decreased | significantly increased | alleviated | 0 and 1 (4×) and 2 (3×)
2 | CC(C)(CO)c1cc2cc(NC(=O)C3(c4ccc5c(c4)OC(F)(F)O5)CC3)c(F)cc2n1C[C@@H](O)CO [tezacaftor] | 2.03 ± 0.12 mm | 1.63 ± 0.14 | 1.73 ± 0.21 mm | 1.24 ± 0.13 | 1.61 ± 0.13 mm | 1.12 ± 0.08 | significantly reduced; also recorded: decreases | significantly reduced; also recorded: decreases | 0.186 ± 0.088% | 0.055 ± 0.012 % | decreases | significantly reduced; also recorded: decreases | significantly decreased; also recorded: significantly improved | significantly increased; also recorded: significantly improved | alleviated; also recorded: alleviating breast hyperplasia | 1 (4×) and 2 (4×)
